{"source": "patent US4581354A", "about": "“3-arylcarbonyl- and 3-cycloalkylcarbonyl-1-aminoalkyl-1H-indoles, compositions and use” (Sterling Drug Inc., priority 1985, dated 1986)", "note": "Structures can show the parent of a compound that is named as a salt.", "data": [{"test_system": "acetylcholine-induced abdominal constriction", "assay": "animal or person", "assay_type": "in vivo, mice", "details": "Mus musculus, iv, 10 mg./kg. i.v.; read-out: Ach percent inhibition", "description": "(§1) The test procedures used to determine the analgesic activities of the compounds have been described in detail in the prior art and are as follows: The acetylcholine-induced abdominal constriction test, which is a primary analgesic screening test designed to measure the ability of a test agent to suppress acetylcholine-induced abdominal constriction in mice, described by Collier et al., Brit. J. Pharmacol. Chemotherap. 32, 295 (1968); a modification of the anti-bradykinin test, which is also a primary analgesic screening procedure, described by Berkowitz et al., J. Pharmacol. Exptl. Therap. 177, 500-508 (1971), Blane et al., J. Pharm. Pharmacol. 19, 367-373 (1967), Botha et al., Eur. J. Pharmacol. 6, 312-321 (1969) and Deffenu et al., J. Pharm. Pharmacol. 18, 135 (1966); and the rat paw flexion test, described by Kuzuna et al., Chem. Pharm. Bull., 23, 1184-1191 (1975), Winter et al., J. Pharm. Exptl. Therap., 211, 678-685 (1979) and Capetola et al., J. Pharm. Exptl. Therap. 214, 16-23 (1980).\n(§2) Unless noted otherwise, all data were obtained on oral administration and are expressed either as the ED50 or as the percent inhibition at a given dose level (thus 30/100 or 30% inhibition at […].)\n(§3) In some instances, the compounds were retested two or more times, and ED50 values were calculated for each series of repeat tests. In such instances, each of the ED50 values so-obtained is given in a series of values, thus 6, 28, 30, 43 in the case of the species of Example 1AW in the acetylcholine-induced abdominal constriction test.", "units": {"inhibition in vivo at 10 mg/kg": "%"}, "values": [{"molecule": "Cc1c(C(=O)c2cccc3ccccc23)c2ccccc2n1CCN1CCN(C)CC1", "note": "[Example 3J]", "inhibition in vivo at 10 mg/kg": 30}]}, {"test_system": "acetylcholine-induced abdominal constriction", "assay": "animal or person", "assay_type": "in vivo, mice", "details": "Mus musculus, iv; read-out: Ach ED50", "description": "as §1, §2, §3", "units": {"ED50": "mg/kg"}, "values": [{"molecule": "Cc1c(C(=O)c2cccc3ccccc23)c2ccccc2n1CCN1CCCC(O)C1", "note": "(centres unmarked) [Example 3H]", "ED50": 9.7}]}, {"test_system": "acetylcholine-induced abdominal constriction", "assay": "animal or person", "assay_type": "in vivo, mice", "details": "Mus musculus, po, 30 mg./kg. oral; read-out: Ach percent inhibition", "description": "as §1, §2, §3", "units": {"inhibition in vivo at 30 mg/kg": "%"}, "values": [{"molecule": "Cc1c(C(=O)c2ccc(CNC(N)=NC#N)cc2)c2ccccc2n1CCN1CCOCC1", "note": "[Example 10, 2-methyl-3-(4-cyanoguanidinylmethylbenzoyl)-1-[2-(4-morpholinyl)ethyl]-1H-indole]", "inhibition in vivo at 30 mg/kg": 0}, {"molecule": "Cc1c(C(=O)c2ccc(C=O)cc2)c2ccccc2n1CCN1CCOCC1", "note": "[Example 11, 2-methyl-3-(4-formylbenzoyl)-1-[2-(4-morpholinyl)ethyl]-1H-indole]", "inhibition in vivo at 30 mg/kg": 20}]}, {"test_system": "acetylcholine-induced abdominal constriction", "assay": "animal or person", "assay_type": "in vivo, mice", "details": "Mus musculus, po, 100 mg./kg. oral; read-out: Ach percent inhibition", "description": "as §1, §2, §3", "units": {"inhibition in vivo at 100 mg/kg": "%"}, "values": [{"molecule": "Cc1ccc(C(=O)c2c(C)n(CCN3CCOCC3)c3ccccc23)cc1C", "note": "[Example 2V]", "inhibition in vivo at 100 mg/kg": 20}, {"molecule": "CCN(CC)CCCCn1c(C)c(C(=O)c2ccc(OC)cc2)c2ccccc21", "note": "[Example 3AD]", "inhibition in vivo at 100 mg/kg": 100}, {"molecule": "COc1ccc(C(=O)c2c(C)n(CCCN3CCS(=O)(=O)CC3)c3ccc(F)cc23)cc1", "note": "[Example 3AH]", "inhibition in vivo at 100 mg/kg": 30}, {"molecule": "Cc1c(C(=O)c2cccc3ccccc23)c2ccccc2n1CCN1CCNCC1", "note": "[Example 3I]", "inhibition in vivo at 100 mg/kg": 30}, {"molecule": "Cc1c(C(=O)c2cccc3ccccc23)c2ccccc2n1CCN1CCOC(C)C1", "note": "(centres unmarked) [Example 3M]", "inhibition in vivo at 100 mg/kg": 10}, {"molecule": "COc1ccc(C(=O)c2c(C)n(CCN3CCCC(NC(C)=O)C3)c3ccccc23)cc1", "note": "(centres unmarked) [Example 3N, 1-[2-(3-acetylamino-1-piperidinyl)ethyl]-2-methyl-3-(4-methoxybenzoyl)-1H-indole]", "inhibition in vivo at 100 mg/kg": 40}, {"molecule": "COc1ccc(C(=O)c2c(C)n(CCN3CCCCC3CC3CCCCC3)c3ccccc23)cc1", "note": "(centres unmarked) [Example 3Q]", "inhibition in vivo at 100 mg/kg": 40}, {"molecule": "COc1ccc(C(=O)c2c(C)n(CCN3CC(C)OC(C)C3)c3ccccc23)cc1", "note": "(centres unmarked) [Example 3R]", "inhibition in vivo at 100 mg/kg": 40}, {"molecule": "COc1ccc(C(=O)c2c(C)n(CCN3CCN(C=O)CC3)c3ccccc23)cc1", "note": "[Example 3S, 1-[2-(4-formyl-1-piperazinyl)ethyl]-2-methyl-3-(4-methoxybenzoyl)-1H-indole]", "inhibition in vivo at 100 mg/kg": 40}, {"molecule": "COc1ccc(C(=O)c2c(C)n(CCN3CCSCC3)c3ccccc23)cc1", "note": "[Example 3U, 2-methyl-3-(4-methoxybenzoyl)-1-[2-(4-thiomorpholinyl)ethyl]-1H-indole]", "inhibition in vivo at 100 mg/kg": 30}, {"molecule": "CCCCNc1ccc(C(=O)c2c(C)n(CCN3CCOCC3)c3ccccc23)cc1", "note": "[Example 8B, 2-methyl-3-(4-butylaminobenzoyl)-1-[2-(4-morpholinyl)ethyl]-1H-indole]", "inhibition in vivo at 100 mg/kg": 35}, {"molecule": "Cc1c(C(=NO)c2ccccc2F)c2cc(F)ccc2n1CCCN1CCOCC1", "note": "[Example 13B, 5-fluoro-3-(2-fluorobenzoyl)-2-methyl-1-[3-(4-morpholinyl)propyl]-1H-indole oxime]", "inhibition in vivo at 100 mg/kg": 0}, {"molecule": "Cc1c(/C(=N\\O)c2ccccc2F)c2ccccc2n1CCN1CCOCC1", "note": "[Example 13C, (E)-3-(2-fluorobenzoyl)-2-methyl-1-[2-(4-morpholinyl)ethyl]-1H-indole oxime]", "inhibition in vivo at 100 mg/kg": 20}, {"molecule": "Cc1c(C(=O)c2ccc(-n3cccc3)cc2)c2ccccc2n1CCN1CCOCC1", "note": "[Example 14, 2-methyl-3-[4-(1H-pyrrol-1-yl)benzoyl]-1-[2-(4-morpholinyl)ethyl]-1H-indole]", "inhibition in vivo at 100 mg/kg": 40}, {"molecule": "Cc1c(C(=O)c2ccccc2O)c2ccccc2n1CCN1CCOCC1", "note": "[Example 16A, 2-methyl-3-(2-hydroxybenzoyl)-1-[2-(4-morpholinyl)ethyl]-1H-indole]", "inhibition in vivo at 100 mg/kg": 10}]}, {"test_system": "acetylcholine-induced abdominal constriction", "assay": "animal or person", "assay_type": "in vivo, mice", "details": "Mus musculus, po, 150 mg./kg. oral; read-out: Ach percent inhibition", "description": "as §1, §2, §3", "units": {"inhibition in vivo at 150 mg/kg": "%"}, "values": [{"molecule": "Cc1c(C(=O)c2ccc(NS(C)(=O)=O)cc2)c2ccccc2n1CCN1CCOCC1", "note": "[Example 5E]", "inhibition in vivo at 150 mg/kg": 38}]}, {"test_system": "acetylcholine-induced abdominal constriction", "assay": "animal or person", "assay_type": "in vivo, mice", "details": "Mus musculus, po, 300 mg./kg. oral; read-out: Ach percent inhibition", "description": "as §1, §2, §3", "units": {"inhibition in vivo at 300 mg/kg": "%"}, "values": [{"molecule": "Cc1c(C(=O)c2ccc(NS(C)(=O)=O)cc2)c2ccccc2n1CCN1CCOCC1", "note": "[Example 5E]", "inhibition in vivo at 300 mg/kg": 40}, {"molecule": "Cc1c(C(=O)c2ccc(NC(N)=O)cc2)c2ccccc2n1CCN1CCOCC1", "note": "[Example 9, 2-methyl-3-(4-carbamylaminobenzoyl)-1-[2-(4-morpholinyl)ethyl]-1H-indole]", "inhibition in vivo at 300 mg/kg": 27}]}, {"test_system": "acetylcholine-induced abdominal constriction", "assay": "animal or person", "assay_type": "in vivo, mice", "details": "Mus musculus, po; read-out: Ach ED50", "description": "as §1, §2, §3", "units": {"ED50": "mg/kg"}, "values": [{"molecule": "Cc1c(C(=O)C=Cc2ccccc2)c2ccccc2n1CCN1CCOCC1", "note": "[Example 2W]", "ED50": 72}, {"molecule": "COc1ccc(C(=O)c2c(C)n(CCN(C)CCO)c3ccccc23)cc1", "note": "[Example 3-O]", "ED50": 76}, {"molecule": "COc1ccc(C(=O)c2c(C)n(CCN3CCC(O)CC3)c3ccccc23)cc1", "note": "[Example 3A, 2-methyl-3-(4-methoxybenzoyl)-1-[2-(4-hydroxy-1-piperidinyl)ethyl]-1H-indole hydrochloride hemihydrate]", "ED50": 68.1}, {"molecule": "COc1ccc(C(=O)c2c(C)n(CCCCN3CCOCC3)c3ccccc23)cc1", "note": "[Example 3AA]", "ED50": 22}, {"molecule": "COc1ccc(C(=O)c2c(C)n(CCCCN3CCCCC3)c3ccccc23)cc1", "note": "[Example 3AB]", "ED50": 25}, {"molecule": "COc1ccc(C(=O)c2c(C)n(CCCCN3CCCC3)c3ccccc23)cc1", "note": "[Example 3AC]", "ED50": 21}, {"molecule": "COc1ccc(C(=O)c2c(C)n(CCCN3CCSCC3)c3ccc(F)cc23)cc1.Cl", "note": "[Example 3AF, 5-fluoro-2-methyl-3-(4-methoxybenzoyl)-1-[3-(4-thiomorpholinyl)propyl]-1H-indole hydrochloride]", "ED50": 139}, {"molecule": "CCNCCCn1c(C)c(C(=O)c2ccc(OC)cc2)c2cc(F)ccc21", "note": "[Example 3AG]", "ED50": 42}, {"molecule": "COc1ccc(C(=O)c2c(C)n(CCCN(C)CCO)c3ccc(F)cc23)cc1", "note": "[Example 3AJ]", "ED50": 35}, {"molecule": "COc1ccc(C(=O)c2c(C)n(CCN3CCN(C)CC3)c3ccccc23)cc1", "note": "[Example 3C]", "ED50": 53}, {"molecule": "CCNCCn1c(C)c(C(=O)c2ccc(OC)cc2)c2ccccc21", "note": "[Example 3K]", "ED50": 45.7}, {"molecule": "COCCNCCn1c(C)c(C(=O)c2ccc(OC)cc2)c2ccccc21", "note": "[Example 3L]", "ED50": 44}, {"molecule": "COc1ccc(C(=O)c2c(C)n(CCN3CCOC(C)C3)c3ccccc23)cc1", "note": "(centres unmarked) [Example 3P]", "ED50": 71}, {"molecule": "COc1ccc(C(=O)c2c(C)n(CCN3CCCNCC3)c3ccccc23)cc1", "note": "[Example 3T]", "ED50": 53}, {"molecule": "COc1ccc(C(=O)c2c(C)n(CCN3CCS(=O)(=O)CC3)c3ccccc23)cc1", "note": "[Example 3V]", "ED50": 254}, {"molecule": "COc1ccc(C(=O)c2c(C)n(CCCN3CCCC(O)C3)c3ccc(F)cc23)cc1", "note": "(centres unmarked) [Example 3W]", "ED50": 49}, {"molecule": "COc1ccc(C(=O)c2c(C)n(CCCN3CCOC(C)C3)c3ccc(F)cc23)cc1", "note": "(centres unmarked) [Example 3Y]", "ED50": 69}, {"molecule": "COc1ccc2c(C(=O)c3ccc(N)cc3)c(C)n(CCN3CCOCC3)c2c1", "note": "[Example 4C, 2-methyl-3-(4-aminobenzoyl)-6-methoxy-1-[2-(4-morpholinyl)ethyl]-1H-indole]", "ED50": 37}, {"molecule": "Cc1c(C(=O)c2ccc(N)cc2)c2ccccc2n1C(C)CN1CCOCC1", "note": "(centres unmarked) [Example 4D, 2-methyl-3-(4-aminobenzoyl)-1-[1-methyl-2-(4-morpholinyl)ethyl]-1H-indole]", "ED50": 24}, {"molecule": "CCC(=O)Nc1ccc(C(=O)c2c(C)n(CCN3CCOCC3)c3ccccc23)cc1", "note": "[Example 5F]", "ED50": 76}, {"molecule": "COc1ccc(C(=NO)c2c(C)n(CCN3CCOCC3)c3ccccc23)cc1", "note": "[Example 13A, 2-methyl-3-(4-methoxybenzoyl)-1-[2-(4-morpholinyl)ethyl]-1H-indole oxime]", "ED50": 139}, {"molecule": "COc1ccc(C(=O)c2c(C)n(CC[N+]3([O-])CCOCC3)c3ccccc23)cc1", "note": "[Example 15, 2-methyl-3-(4-methoxybenzoyl)-1-[2-(4-morpholinyl)ethyl]-1H-indole/N(MOR)-oxide]", "ED50": 155}]}, {"test_system": "acetylcholine-induced abdominal constriction", "assay": "animal or person", "assay_type": "in vivo, mice", "details": "Mus musculus, sc, 30 mg./kg. s.c.; read-out: Ach percent inhibition", "description": "as §1, §2, §3", "units": {"inhibition in vivo at 30 mg/kg": "%"}, "values": [{"molecule": "Cc1c(C(=O)c2ccc(NC(N)=O)cc2)c2ccccc2n1CCN1CCOCC1", "note": "[Example 9, 2-methyl-3-(4-carbamylaminobenzoyl)-1-[2-(4-morpholinyl)ethyl]-1H-indole]", "inhibition in vivo at 30 mg/kg": 20}, {"molecule": "Cc1c(C(=O)c2ccc(CNC(N)=NC#N)cc2)c2ccccc2n1CCN1CCOCC1", "note": "[Example 10, 2-methyl-3-(4-cyanoguanidinylmethylbenzoyl)-1-[2-(4-morpholinyl)ethyl]-1H-indole]", "inhibition in vivo at 30 mg/kg": 7}, {"molecule": "Cc1c(C(=O)c2ccc(C=O)cc2)c2ccccc2n1CCN1CCOCC1", "note": "[Example 11, 2-methyl-3-(4-formylbenzoyl)-1-[2-(4-morpholinyl)ethyl]-1H-indole]", "inhibition in vivo at 30 mg/kg": 13}]}]}
